Experiment: Pharmacokinetics of aprepitant emulsion, intravenous injection, plasma LC-MS/MS
Assay type: in vivo, Sprague-Dawley rats
Details: rat, i.v., equivalent to 14 mg/kg aprepitant, by the 3-hour time point
Procedure: Blood from all rats was collected at the appropriate time intervals and processed to plasma by centrifugation. Plasma samples were analyzed by LC-MS/MS for aprepitant and fosaprepitant, as appropriate. […] The curves indicate the initial aprepitant level reached immediately after injection of the aprepitant emulsion was almost 3 times higher than the initial aprepitant level reached immediately after injection of the fosaprepitant solution.

## C[C@@H](O[C@H]1OCCN(Cc2nc(O)n(P(=O)(O)O)n2)[C@H]1c1ccc(F)cc1)c1cc(C(F)(F)F)cc(C(F)(F)F)c1 [fosaprepitant]
  Plasma levels of aprepitant, emulsion versus fosaprepitant solution: essentially the same

— patent US11878074B2, “Methods of use of emulsion formulations of an NK-1 receptor antagonist” (Heron Therapeutics, Inc., priority 2016, dated 2024)
